Among the test systems are K562; NCI-H23; OVCAR-4; KM12; SK-OV-3; OVCAR-3; HOP-62; DU-145; COLO 205; Malme-3M; MCF7; SK-MEL-2; HCC 2998; HOP-92; LOX IMVI; OVCAR-8; BT-549; EKVX; A498; PC-3.
Common to all, as to experiment: NCI tumour cell line growth inhibition, 48 h

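Values below derive from 48-hour exposures of cells grown in 96-well plates, with endpoints linearly interpolated between the two concentrations bracketing the appropriate inhibition level. The concentration for 50% growth inhibition is given as GI50.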 The source made the active and inactive calls. Cut-off read from the data, not from the text of the source: active = GI50 up to about 1.1 µM and inactive = higher.

On to `O=C(O)CCCSc1ccccc1`, for which the GI50 with K562, in the experiment with NCI-H23, with OVCAR-4, in the experiment on KM12, in the experiment on SK-OV-3 and in the experiment with OVCAR-3 was > 100 µM (inactive) each time. Moreover, the GI50 in the experiment with HOP-62, in the experiment on DU-145, in the experiment with COLO 205, with Malme-3M, in the experiment with MCF7 and in the experiment on SK-MEL-2 was > 100 µM (inactive) in each case. Also, the GI50 in the experiment with HCC 2998, in the experiment with HOP-92, in the experiment on LOX IMVI, with OVCAR-8, with BT-549 and in the experiment with EKVX was > 100 µM (inactive) in each case. Further, the GI50 with A498 and with PC-3 was > 100 µM (inactive) in each case.

On to `CC(C)CCC1(O)O[C@H]2C[C@H]3[C@@H]4CCC5CC(=O)C=C[C@]5(C)[C@H]4CC[C@]3(C)[C@H]2[C@@H]1C` (stereo partly drawn), for which the GI50 in the experiment on K562 is 5.07 µM (inactive); with NCI-H23 it was 4.26 µM (inactive); with OVCAR-4, 11.9 µM (inactive); with KM12, 11.8 µM (inactive); in the experiment on SK-OV-3, 18.8 µM (inactive); in the experiment on OVCAR-3, 10.8 µM (inactive). Besides, the GI50 in the experiment on HOP-62 was 15 µM (inactive); with DU-145, 14.7 µM (inactive); in the experiment on COLO 205 it was 14.4 µM (inactive); in the experiment with Malme-3M, 14.9 µM (inactive); with MCF7, 7.73 µM (inactive); in the experiment with SK-MEL-2, 15.2 µM (inactive). Further, the GI50 was 0.148 µM (active) with HCC 2998; 3.58 µM (inactive) in the experiment with HOP-92; 12.7 µM (inactive) in the experiment with LOX IMVI; 14.2 µM (inactive) in the experiment with OVCAR-8; 14.3 µM (inactive) in the experiment with BT-549; 16.7 µM (inactive) with EKVX. The results for the GI50 with A498 and in the experiment on PC-3 were 14.6 µM (inactive) and 5.02 µM (inactive), respectively.

For the compound `C#CC(O)/C=C/CCCCCCC#CC/C=C\CC#CCCCCCCCCC(O)C#C` (stereo not drawn), the GI50 with K562 was 3.14 µM (inactive); in the experiment with NCI-H23, 1.02 µM (active); in the experiment on OVCAR-4 it was 4.19 µM (inactive); in the experiment with KM12, 3.05 µM (inactive); with SK-OV-3, 17.6 µM (inactive); in the experiment with OVCAR-3, 10.1 µM (inactive). In addition, the GI50 in the experiment on HOP-62 was 4.27 µM (inactive); in the experiment on DU-145, 5.83 µM (inactive); in the experiment on COLO 205, 2.58 µM (inactive); in the experiment with Malme-3M, 1.95 µM (inactive); in the experiment on MCF7, 17.4 µM (inactive); in the experiment with SK-MEL-2, 2.59 µM (inactive). Moreover, the GI50 was 3.63 µM (inactive) in the experiment on HCC 2998; 1.8 µM (inactive) in the experiment with HOP-92; < 0.01 µM (active) in the experiment with LOX IMVI; 1.91 µM (inactive) in the experiment on OVCAR-8; 6.71 µM (inactive) in the experiment with BT-549; 3.51 µM (inactive) in the experiment with EKVX. The GI50 in the experiment on A498 is 12.6 µM (inactive); in the experiment on PC-3, 14.3 µM (inactive).

With `CC(=O)NC1C(OCc2ccccc2)OC(CO)C(O)C1OCC(=O)NC(C)C(=O)NC(CCC(=O)NCCCCNc1ccc([N+](=O)[O-])c2[nH]c3ccccc3c(=O)c12)C(N)=O` (stereo not drawn), the GI50 with K562 was > 100 µM (inactive); in the experiment with NCI-H23 it was > 100 µM (inactive); in the experiment with OVCAR-4 it was 40.5 µM (inactive); in the experiment with KM12, 90.2 µM (inactive); in the experiment with SK-OV-3 it was > 100 µM (inactive); in the experiment with OVCAR-3, > 100 µM (inactive). Further, the GI50 in the experiment on HOP-62, in the experiment on DU-145, with COLO 205, in the experiment with Malme-3M, in the experiment on MCF7 and with SK-MEL-2 was > 100 µM (inactive) each time. Besides, the GI50 in the experiment with HCC 2998 was > 100 µM (inactive); in the experiment on HOP-92 it was > 100 µM (inactive); in the experiment with LOX IMVI, > 100 µM (inactive); in the experiment on OVCAR-8, > 100 µM (inactive); in the experiment with BT-549, 30.1 µM (inactive); in the experiment with EKVX, 88.5 µM (inactive). The GI50 with A498 and in the experiment on PC-3 was > 100 µM (inactive) in each case.

On to `CCCCCCCCCCCCCCCCCCNc1nc(=O)n(C2CC(O)C(COP(=O)(O)OCC(COP(=O)(O)OC3C(CO)OC(n4ccc(N)nc4=O)C3O)OCCCCCCCCCCCCCCCCCC)O2)cc1F` (stereo not drawn), for which the GI50 in the experiment on K562 was 22.9 µM (inactive); with NCI-H23 it was 32 µM (inactive); in the experiment with OVCAR-4, 87.9 µM (inactive); with KM12 it was > 100 µM (inactive); in the experiment with SK-OV-3, 99.3 µM (inactive); in the experiment on OVCAR-3, > 100 µM (inactive). The GI50 with HOP-62 is 16.5 µM (inactive); in the experiment on DU-145 it was 34.8 µM (inactive); with COLO 205 it was 16.7 µM (inactive); in the experiment with Malme-3M, 41.4 µM (inactive); in the experiment with MCF7, 8.71 µM (inactive); in the experiment with SK-MEL-2, > 100 µM (inactive). Besides, the GI50 in the experiment with HCC 2998 was 14.1 µM (inactive); in the experiment with HOP-92, > 100 µM (inactive); in the experiment with LOX IMVI, 16.7 µM (inactive); in the experiment on OVCAR-8, 18.6 µM (inactive); in the experiment with BT-549, 56.4 µM (inactive); in the experiment on EKVX, > 100 µM (inactive). Moreover, the GI50 was 36.7 µM (inactive) in the experiment with A498 and 13.2 µM (inactive) in the experiment with PC-3.

`CSc1c(C#N)c(O)nc(N)c1C(=O)Nc1ccc(Cl)cc1`: the GI50 in the experiment with K562 is 4.54 µM (inactive); in the experiment with NCI-H23, 16.8 µM (inactive); in the experiment with OVCAR-4, 31.4 µM (inactive); in the experiment on KM12, 7.96 µM (inactive); with SK-OV-3, 23.3 µM (inactive); with OVCAR-3, 14.9 µM (inactive). The GI50 in the experiment on HOP-62 is 16 µM (inactive); in the experiment on DU-145, 17.5 µM (inactive); in the experiment on COLO 205 it was 10.6 µM (inactive); in the experiment on Malme-3M, 26.5 µM (inactive); in the experiment with MCF7, 8.63 µM (inactive); in the experiment with SK-MEL-2, 6.25 µM (inactive). The GI50 was 11.5 µM (inactive) with HCC 2998; 21.7 µM (inactive) in the experiment on HOP-92; 1.74 µM (inactive) in the experiment with LOX IMVI; 19.1 µM (inactive) with OVCAR-8; 24.5 µM (inactive) in the experiment on BT-549; 14.9 µM (inactive) with EKVX. For the same compound, the GI50 in the experiment on A498 was 16.6 µM (inactive); with PC-3 it was 13.2 µM (inactive).

Regarding `NC(=O)C1=C(O)C[C@@H]2CC3Cc4cccc(O)c4C(=O)C3=C(O)[C@]2(O)C1=O` (stereo partly drawn), the GI50 is 1.81 µM (inactive) in the experiment with K562; 1.85 µM (inactive) in the experiment on NCI-H23; 10.7 µM (inactive) with OVCAR-4; 9.55 µM (inactive) in the experiment with KM12; 3.69 µM (inactive) with SK-OV-3; 2.77 µM (inactive) in the experiment with OVCAR-3. Besides, the GI50 is 3.31 µM (inactive) in the experiment on HOP-62; 3.16 µM (inactive) in the experiment with DU-145; 1.63 µM (inactive) in the experiment on COLO 205; 2 µM (inactive) in the experiment on Malme-3M; 1.79 µM (inactive) in the experiment with MCF7; 1.86 µM (inactive) in the experiment with SK-MEL-2. The GI50 in the experiment with HCC 2998 was 3.1 µM (inactive); in the experiment on HOP-92, 1.67 µM (inactive); with LOX IMVI, 1.77 µM (inactive); in the experiment on OVCAR-8, 2.92 µM (inactive); in the experiment on BT-549, 1.87 µM (inactive); in the experiment with EKVX, 0.861 µM (active). In addition, the GI50 in the experiment with A498 was 2.74 µM (inactive); in the experiment on PC-3, 1.8 µM (inactive).

For the compound `O=c1c2c([N+](=O)[O-])cccc2nc2[nH]c3ccccc3n12`, the GI50 was > 75 µM (inactive) in the experiment on K562; 32.9 µM (inactive) in the experiment on NCI-H23; 11.6 µM (inactive) in the experiment on OVCAR-4; 32.4 µM (inactive) in the experiment with KM12; 13.3 µM (inactive) in the experiment with SK-OV-3; 20.7 µM (inactive) with OVCAR-3. Moreover, the GI50 with HOP-62 was 70.8 µM (inactive); with DU-145, 34 µM (inactive); with COLO 205, 40.7 µM (inactive); in the experiment with Malme-3M, 46 µM (inactive); in the experiment with MCF7 it was 20.4 µM (inactive); in the experiment on SK-MEL-2 it was 14.4 µM (inactive). Moreover, the GI50 with HCC 2998 is 19.3 µM (inactive); in the experiment with HOP-92 it was 19.8 µM (inactive); with LOX IMVI, 32.8 µM (inactive); in the experiment with OVCAR-8 it was 14.5 µM (inactive); in the experiment on BT-549 it was 20.5 µM (inactive); with EKVX, 30.2 µM (inactive). Besides, the GI50 was 26.6 µM (inactive) with A498 and 57.8 µM (inactive) in the experiment on PC-3.

On to `CC1(C)CCC2=C(O1)/C(=N\Nc1ccc(S(N)(=O)=O)cc1)c1ccccc1C2=O`, for which the GI50 in the experiment with K562 is 28.4 µM (inactive); with NCI-H23, 6.55 µM (inactive); with OVCAR-4, 5.81 µM (inactive); with KM12, 10.5 µM (inactive); in the experiment with SK-OV-3, 4.15 µM (inactive); in the experiment with OVCAR-3, 16.7 µM (inactive). Moreover, the GI50 is 7.8 µM (inactive) with HOP-62; 12.5 µM (inactive) with DU-145; 20.3 µM (inactive) in the experiment on COLO 205; 3.3 µM (inactive) with Malme-3M; 13.5 µM (inactive) in the experiment with MCF7; 11.9 µM (inactive) with SK-MEL-2. In addition, the GI50 in the experiment with HCC 2998 is 5.25 µM (inactive); with HOP-92 it was 12.4 µM (inactive); in the experiment on LOX IMVI, 4.41 µM (inactive); with OVCAR-8 it was 10.6 µM (inactive); in the experiment with BT-549 it was 13.1 µM (inactive); with EKVX it was 16.7 µM (inactive). Moreover, the GI50 is 2.37 µM (inactive) in the experiment with A498 and 13.6 µM (inactive) in the experiment on PC-3.

In the case of `Nc1c(F)c(F)c2c(c1F)N(CCCCCl)c1ccccc1S2`, the GI50 with K562, in the experiment with NCI-H23, in the experiment with OVCAR-4, in the experiment on KM12, with SK-OV-3 and in the experiment on OVCAR-3 was > 100 µM (inactive) in each case. Also, the GI50 with HOP-62, with DU-145, in the experiment on COLO 205, in the experiment with Malme-3M, in the experiment on MCF7 and with SK-MEL-2 was > 100 µM (inactive) in each case. Moreover, the GI50 in the experiment on HCC 2998, in the experiment with HOP-92, in the experiment on LOX IMVI, with BT-549, in the experiment with A498 and with PC-3 was > 100 µM (inactive) in each case.

For the origin of these results see ChEMBL document CHEMBL1201862, “PubChem BioAssay data set” (2004).
